Measurements published in patent US10696686B2, “Herbicidally active (alkynyl-phenyl)-substituted cyclic dione compounds and derivatives thereof” (Syngenta Limited, priority 2013, dated 2020).

Experiments:
Assay type in all cases: in vivo
[1] = tested on: Alopecurus myosuroides (ALOMY); experiment: Biological Example 1B glasshouse assay, pre-emergence application; details: 250 g/ha, 13 days after application
Summary of the method: (§1)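 Sow in sand/sandy loam; grow 1 d (pre-emergence) or 8 d (post-emergence) at 24/16 °C, 14 h light, 65% humidity; spray aqueous dilution of acetone/water (50:50) formulation with 0.5% Tween 20; water twice daily; rate damage visually after 13 days.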

[2] = tested on: Amaranthus retroflexus (AMARE); experiment: as above; details: 250 g/ha, 13 days after application
Summary of the method: as §1

Setaria faberi (SETFA) [3] = experiment: as above; details: 250 g/ha, 13 days after application
Summary of the method: as §1

[4] = tested on: Zea mays (ZEAMX, corn, maize, e.g. volunteer corn); experiment: as above; details: 250 g/ha, 13 days after application
Summary of the method: as §1

[5] = tested on: Alopecurus myosuroides (ALOMY); experiment: Biological Example 2 glasshouse assay (IF50 formulation, X-77), post-emergence; details: 14 or 15 DAA
Protocol: (§2) Seeds of a variety of monocotyledonous and dicotyledonous test plants are sown in standard soil in pots. The plants are cultivated for one day (for pre-emergence) or for about 12 days (range=10-13 days) (for post-emergence) under controlled conditions in a glasshouse (warm climate species at 24/18° C., cool climate species at 20/16° C., both at day/night; 16 hours light; 65% humidity). An “instant formulation”, known as the “IF50”, containing 50 g/litre (i.e. 5% w/v) of the “technical” (i.e. unformulated) active ingredient is prepared by dissolving the active ingredient in a mixture of organic solvents and emulsifier, details of which are provided in the Table below. This IF50 is then mixed with a small, variable amount of acetone to aid dissolution, before addition of a 0.2% v/v aqueous solution of the adjuvant X-77 (which is a mixture of alkyl aryl polyoxyethylene glycols and free fatty acids in isopropanol, CAS Registry number 11097-66-8), as the aqueous diluent, to form an aqueous spray solution which contains a predetermined concentration of the active ingredient (which varies depending on the application rate of the active ingredient to the plants) and 0.2% v/v of the adjuvant X-77. This aqueous spray solution is then sprayed onto the plants, after one day's cultivation (for pre-emergence) or after about 12 days' cultivation (for post-emergence).
(§3) The test plants are then grown on, in a glasshouse (greenhouse) under controlled conditions (at either 24/18° C. or 20/16° C. (day/night) as mentioned above; 16 hours light; 65% humidity) and are watered twice daily. Either 14 or 15 days after application of the herbicide (14 or 15 DAA) (for post-emergence), or 20 days after application of the herbicide (20 DAA) (for pre-emergence), the test plants are evaluated visually, and an assessed percentage phytotoxicity score is given for each herbicidal application on each plant species (where 100%=total damage to plant; 0%=no damage to plant). Some of the typical test plants are as follows: Cool climate crop plants: Triticum aestivum (TRZAW, winter wheat), Brassica napus (BRSNN, rape, also called oilseed rape or rapeseed), Beta vulgaris (BEAVA, sugarbeet). Warm climate crop plants: Glycine max (GLXMA, soybean). Cool climate (“cool season”) grassy monocotyledonous weeds: Alopecurus myosuroides (ALOMY), Avena fatua (AVEFA), Lolium perenne (LOLPE), Poa annua (POAAN), Bromus tectorum (BROTE). Warm climate (“warm season”) grassy monocotyledonous weeds: Setaria faberi (SETFA), SORVU (Sorghum bicolor (L.) Moench ssp. Bicolor, or Sorghum vulgare Pers.), Digitaria sanguinalis (DIGSA), Echinochloa crus-galli (ECHCG), Brachiaria plantaginea (BRAPL), Zea mays (ZEAMX, corn, maize, e.g. volunteer corn), Panicum miliaceum (PANMI).

Avena fatua (AVEFA) = experiment: as above; details: 14 or 15 DAA
Protocol: as §2, §3

[6] = tested on: Beta vulgaris (BEAVA, sugarbeet); experiment: as above; details: for percentage phytotoxicity score BEAVA: post-emergence, 14 or 15 DAA
Protocol: as §2, §3

[7] = tested on: Brachiaria plantaginea (BRAPL); experiment: as above; details: 14 or 15 DAA
Protocol: as §2, §3

[8] = tested on: Brassica napus (BRSNN, rape); experiment: as above; details: 14 or 15 DAA
Protocol: as §2, §3

[9] = tested on: Digitaria sanguinalis (DIGSA); experiment: as above; details: 14 or 15 DAA
Protocol: as §2, §3

[10] = tested on: Echinochloa crus-galli (ECHCG); experiment: as above; details: 14 or 15 DAA
Protocol: as §2, §3

[11] = tested on: Glycine max (GLXMA, soybean); experiment: as above; details: for percentage phytotoxicity score GLXMA: post-emergence, 14 or 15 DAA
Protocol: as §2, §3

[12] = tested on: SORVU (Sorghum bicolor (L.) Moench ssp. Bicolor, or Sorghum vulgare Pers.); experiment: as above; details: 14 or 15 DAA
Protocol: as §2, §3

Setaria faberi (SETFA) [13] = experiment: as above; details: 14 or 15 DAA
Protocol: as §2, §3

[14] = tested on: Triticum aestivum (TRZAW, winter wheat); experiment: as above; details: for percentage phytotoxicity score TRZAW: 14 or 15 DAA
Protocol: as §2, §3

[15] = tested on: Zea mays (ZEAMX, corn, maize, e.g. volunteer corn); experiment: as above; details: 14 or 15 DAA
Protocol: as §2, §3

[16] = 125 g/ha (rate taken from row order)
[17] = 250 g/ha (rate taken from row order)
[18] = e.g. when applied at 30 g/ha post-emergence, see Biological Example 2

## C#CCC1CC(=O)C(c2c(F)cc(C#CC)cc2OC)C1=O (stereo not shown) [Compound A8, 2-(2-fluoro-6-methoxy-4-prop-1-ynyl-phenyl)-4-prop-2-ynyl-cyclopentane-1,3-dione]
[1]
  Percentage phytotoxicity ALOMY: 90%
[2]
  Percentage phytotoxicity AMARE: 0%
Setaria faberi (SETFA) [3]
  Percentage phytotoxicity SETFA: 90%
[4]
  Percentage phytotoxicity ZEAMX: 100%
[5]; 125 g/ha
  percentage phytotoxicity score ALOMY: 50%
[5]; 250 g/ha
  percentage phytotoxicity score ALOMY: 70%
Avena fatua (AVEFA); [16]
  percentage phytotoxicity score AVEFA: 30%
Avena fatua (AVEFA); [17]
  percentage phytotoxicity score AVEFA: 70%
[6]; [18]
  phytotoxicity against sugarbeet (in words): low or reasonably low phytotoxicity
[6]; 125 g/ha
  percentage phytotoxicity score BEAVA: 10%
[6]; 250 g/ha
  percentage phytotoxicity score BEAVA: 10%
[7]; [16]
  percentage phytotoxicity score BRAPL: 100%
[7]; [17]
  percentage phytotoxicity score BRAPL: 100%
[8]; 125 g/ha
  percentage phytotoxicity score BRSNN: 40%
[8]; 250 g/ha
  percentage phytotoxicity score BRSNN: 60%
[9]; [16]
  percentage phytotoxicity score DIGSA: 100%
[9]; [17]
  percentage phytotoxicity score DIGSA: 100%
[10]; [16]
  percentage phytotoxicity score ECHCG: 100%
[10]; [17]
  percentage phytotoxicity score ECHCG: 100%
[11]; [18]
  phytotoxicity against soybean (in words): low or reasonably low phytotoxicity
[11]; 125 g/ha
  percentage phytotoxicity score GLXMA: 10%
[11]; 250 g/ha
  percentage phytotoxicity score GLXMA: 30%
[12]; [16]
  percentage phytotoxicity score SORVU: 100%
[12]; [17]
  percentage phytotoxicity score SORVU: 100%
Setaria faberi (SETFA) [13]; [16]
  percentage phytotoxicity score SETFA: 90%
Setaria faberi (SETFA) [13]; [17]
  percentage phytotoxicity score SETFA: 100%
[14]; 125 g/ha
  percentage phytotoxicity score TRZAW: 50%
[14]; 250 g/ha
  percentage phytotoxicity score TRZAW: 70%
[14]; relative to herbicidal activity against warm-climate grassy weeds, Biological Example 2
  phytotoxicity against wheat (in words): medium or reasonably low phytotoxicity
[15]; 125 g/ha
  percentage phytotoxicity score ZEAMX: 100%
[15]; 250 g/ha
  percentage phytotoxicity score ZEAMX: 100%
